Measured values: patent US10821115B2, “Compounds that inhibit Mcl-1 protein” (priority 2017, dated 2020)

Legend:
[1] = molecular target: recombinant human Mcl-1 (residues 171-327) / Bim interaction (Homo sapiens (Human), UniProt Q07820); assay: biochemical; assay type: binding; conditions: 0.1 nM Mcl-1(171-327), 0.05 nM biotin-Bim (51-76); read-out: Mcl-1 HTRF IC50
[2] = tested on: human multiple myeloma cell line, OPM-2; assay: Cell viability assay (OPM-2 10 FBS), CellTiter-Glo; assay type: cell-based; conditions: Homo sapiens, OPM-2, 16 h, read-out: OPM-2 10% FBS IC50 IP, OPM-2 cells, 10% FBS, 16 h incubation
Procedure, shortened: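 Steps: plate cells at 3000/well in 10% FBS growth medium, add serially diluted compound, incubate 16 h at 37 °C with 5% CO2, add detection reagent and read luminescence after 25 min. A 4-parameter logistic model gives IC50.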

Sequence of recombinant human Mcl-1 (residues 171-327) / Bim interaction (Q07820 171-327): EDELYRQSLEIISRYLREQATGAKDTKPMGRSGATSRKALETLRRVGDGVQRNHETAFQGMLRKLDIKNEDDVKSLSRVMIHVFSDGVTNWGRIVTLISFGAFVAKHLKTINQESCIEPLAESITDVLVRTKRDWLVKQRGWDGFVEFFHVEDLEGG

| SMILES | IC50 [1] | IC50 [2] |
| --- | --- | --- |
| COCC[C@@H]1[C@@H](C)C/C=C/[C@@](CN2C[C@@H](C)N(C)[C@@H](C)C2)(OC)[C@@H]2CC[C@H]2CN2C[C@@]3(CCCc4cc(Cl)ccc43)COc3ccc(cc32)C(=O)NS1(=O)=O [Example 191, (1S,3′R,6′R,7′R,8′E,11′S,12′R)-6-chloro-7′-methoxy-12′-(2-methoxyethyl)-11′-methyl-7′-(((3R,5S)-3,4,5-trimethyl-1-piperazinyl)methyl)-3,4-dihydro-2H,15′H-spiro[naphthalene-1,22′-[20]oxa[13]thia[1,14]diazatetracyclo [14.7.2.0~3,6~.0~19,24~]pentacosa[8,16,18,24]tetrae11]-15′-one 13′,13′-dioxide] | 0.096 nM | 42 nM |
| COCC[C@@H]1[C@@H](C)C/C=C/[C@@](CN2CCN(C3(C)COC3)CC2)(OC)[C@@H]2CC[C@H]2CN2C[C@@]3(CCCc4cc(Cl)ccc43)COc3ccc(cc32)C(=O)NS1(=O)=O [Example 192, (1S,3′R,6′R,7′R,8′E,11′S,12′R)-6-chloro-7′-methoxy-12′-(2-methoxyethyl)-11′-methyl-7′-((4-(3-methyl-3-oxetanyl)-1-piperazinyl)methyl)-3,4-dihydro-2H,15′H-spiro[naphthalene-1,22′-[20]oxa[13]thia[1,14]diazatetracyclo [14.7.2.0~3,6~.0~19,24~]pentacosa[8,16,18,24]tetraen]-15′-one 13′,13′-dioxide] | 0.078 nM | 65 nM |
| COCCN1CCN(C[C@]2(OC)/C=C/C[C@H](C)[C@@H](C)S(=O)(=O)NC(=O)c3ccc4c(c3)N(C[C@@H]3CC[C@H]32)C[C@@]2(CCCc3cc(Cl)ccc32)CO4)CC1 [Example 195, (1S,3′R,6′R,7′S,8′E,11′S,12′R)-6-chloro-7′-methoxy-7′-((4-(2-methoxyethyl)-1-piperazinyl)methyl)-11′,12′-dimethyl-3,4-dihydro-2H,15′H-spiro[naphthalene-1,22′-[20]oxa[13]thia[1,14]diazatetracyclo [14.7.2.0~3,6~.0~19,24~]pentacosa[8,16,18,24]tetraen]-15′-one 13′,13′-dioxide] | 0.214 nM | 65 nM |
| CO[C@@]1(CN2CCN(C)CC2)/C=C/C[C@H](C)[C@@H](C)S(=O)(=O)NC(=O)c2ccc3c(c2)N(C[C@@H]2CC[C@H]21)C[C@@]1(CCCc2cc(Cl)ccc21)CO3 [Example 196, (1S,3′R,6′R,7′S,8′E,11′S,12′R)-6-chloro-7′-methoxy-11′,12′-dimethyl-7′-((4-methyl-1-piperazinyl)methyl)-3,4-dihydro-2H,15′H-spiro[naphthalene-1,22′-[20]oxa[13]thia[1,14]diazatetracyclo [14.7.2.0~3,6~.0~19,24~]pentacosa[8,16,18,24]tetraen]-15′-one 13′,13′-dioxide] | 0.47 nM | 304 nM |
| CO[C@@]1(CN2CCOC3(COC3)C2)/C=C/C[C@H](C)[C@@H](C)S(=O)(=O)NC(=O)c2ccc3c(c2)N(C[C@@H]2CC[C@H]21)C[C@@]1(CCCc2cc(Cl)ccc21)CO3 [Example 198, (1S,3′R,6′R,7′S,8′E,11′S,12′R)-6-chloro-7′-(2,5-dioxa-8-azaspiro[3.5]non-8-ylmethyl)-7′-methoxy-11′,12′-dimethyl-3,4-dihydro-2H,15′H-spiro[naphthalene-1,22′-[20]oxa[13]thia[1,14]diazatetracyclo [14.7.2.0~3,6~.0~19,24~]pentacosa[8,16,18,24]tetraen]-15′-one 13′,13′-dioxide] | 0.181 nM | 1310 nM |
| COC[C@H]1CN(C[C@]2(OC)/C=C/C[C@H](C)[C@@H](C)S(=O)(=O)NC(=O)c3ccc4c(c3)N(C[C@@H]3CC[C@H]32)C[C@@]2(CCCc3cc(Cl)ccc32)CO4)CCO1 [Example 199, (1S,3′R,6′R,7′S,8′E,11′S,12′R)-6-chloro-7′-methoxy-7′-(((2R)-2-(methoxymethyl)-4-morpholinyl)methyl)-11′,12′-dimethyl-3,4-dihydro-2H,15′H-spiro[naphthalene-1,22′-[20]oxa[13]thia[1,14]diazatetracyclo [14.7.2.0~3,6~.0~19,24~]pentacosa[8,16,18,24]tetraen]-15′-one 13′,13′-dioxide] | 0.119 nM | 208 nM |
| CO[C@@]1(CN2CCc3nocc3C2)/C=C/C[C@H](C)[C@@H](C)S(=O)(=O)NC(=O)c2ccc3c(c2)N(C[C@@H]2CC[C@H]21)C[C@@]1(CCCc2cc(Cl)ccc21)CO3 [Example 200] | 0.315 nM | 583 nM |
| CO[C@@]1(CN2CCn3ccnc3C2)/C=C/C[C@H](C)[C@@H](C)S(=O)(=O)NC(=O)c2ccc3c(c2)N(C[C@@H]2CC[C@H]21)C[C@@]1(CCCc2cc(Cl)ccc21)CO3 [Example 201, (1S,3′R,6′R,7′S,8′E,11′S,12′R)-6-chloro-7′-(5,6-dihydroimidazo[1,2-a]pyrazin-7(8H)-ylmethyl)-7′-methoxy-11′,12′-dimethyl-3,4-dihydro-2H,15′H-spiro[naphthalene-1,22′-[20]oxa[13]thia[1,14]diazatetracyclo [14.7.2.0~3,6~.0~19,24~]pentacosa[8,16,18,24]tetraen]-15′-one 13′,13′-dioxide] | 0.119 nM | 244 nM |
| CO[C@@]1(CN2CC3(C2)CS(=O)(=O)C3)/C=C/C[C@H](C)[C@@H](C)S(=O)(=O)NC(=O)c2ccc3c(c2)N(C[C@@H]2CC[C@H]21)C[C@@]1(CCCc2cc(Cl)ccc21)CO3 [Example 202, (1S,3′R,6′R,7′S,8′E,11′S,12′R)-6-chloro-7′-((2,2-dioxido-2-thia-6-azaspiro[3 .3]hept-6-yl)methyl)-7′-methoxy-11′,12′-dimethyl-3,4-dihydro-2H,15′H-spiro[naphthalene-1,22′-[20]oxa[13]thia[1,14]diazatetracyclo [14.7.2.0~3,6~.0~19,24~]pentacosa[8,16,18,24]tetraen]-15′-one 13′,13′-dioxide] | 0.058 nM | 142 nM |
| CO[C@@]1(CN2CC3(COC3)C2)/C=C/C[C@H](C)[C@@H](C)S(=O)(=O)NC(=O)c2ccc3c(c2)N(C[C@@H]2CC[C@H]21)C[C@@]1(CCCc2cc(Cl)ccc21)CO3 [Example 203, (1S,3′R,6′R,7′S,8′E,11′S,12′R)-6-chloro-7′-methoxy-11′,12′-dimethyl-7′-(2-oxa-6-azaspiro[3.3]hept-6-ylmethyl)-3,4-dihydro-2H,15′H-spiro[naphthalene-1,22′-[20]oxa[13]thia[1,14]diazatetracyclo [14.7.2.0~3,6~.0~19,24~]pentacosa[8,16,18,24]tetraen]-15′-one 13′,13′-dioxide] | 0.113 nM | 112 nM |
| CO[C@@]1(CN2CC3(C2)CN(C(=O)OC(C)(C)C)C3)/C=C/C[C@H](C)[C@@H](C)S(=O)(=O)NC(=O)c2ccc3c(c2)N(C[C@@H]2CC[C@H]21)C[C@@]1(CCCc2cc(Cl)ccc21)CO3 [Example 204, tert-butyl 6-(((1S,3′R,6′R,7′S,8′E,11′S, 12′R)-6-chloro-7′-methoxy-11′,12′-dimethyl-13′,13′-dioxido-15′-oxo-3,4-dihydro-2H-spiro[naphthalene-1,22′-[20]oxa[13]thia[1,14]diazatetracyclo [14.7.2.0~3,6~.0~19,24~]pentacosa[8,16,18,24]tetraen]-7′-yl)methyl)-2,6-diazaspiro[3.3]heptane-2-carboxylate] | 0.23 nM | 319 nM |
| CO[C@@]1(CN2CCc3[nH]nnc3C2)/C=C/C[C@H](C)[C@@H](C)S(=O)(=O)NC(=O)c2ccc3c(c2)N(C[C@@H]2CC[C@H]21)C[C@@]1(CCCc2cc(Cl)ccc21)CO3 [Example 205, (1S,3′R,6′R,7′S,8′E,11′S,12′R)-6-chloro-7′-methoxy-11′,12′-dimethyl-7′-(1,4,6,7-tetrahydro-5H-[1,2,3]triazolo[4,5-c]pyridin-5-ylmethyl)-3,4-dihydro-2H,15′H-spiro[naphthalene-1,22′-[20]oxa[13]thia[1,14]diazatetracyclo [14.7.2.0~3,6~.0~19,24~]pentacosa[8,16,18,24]tetraen]-15′-one 13′,13′-dioxide] | 0.263 nM | 437 nM |
| CO[C@@]1(CN2CC(CO)(CO)C2)/C=C/C[C@H](C)[C@@H](C)S(=O)(=O)NC(=O)c2ccc3c(c2)N(C[C@@H]2CC[C@H]21)C[C@@]1(CCCc2cc(Cl)ccc21)CO3 [Example 206, (1S,3′R,6′R,7′S,8′E,11′S,12′R)-7′-((3,3-bis(hydroxymethyl)-1-azetidinyl)methyl)-6-chloro-7′-methoxy-11′,12′-dimethyl-3,4-dihydro-2H,15′H-spiro[naphthalene-1,22′-[20]oxa[13]thia[1,14]diazatetracyclo [14.7.2.0~3,6~.0~19,24~]pentacosa[8,16,18,24]tetraen]-15′-one 13′,13′-dioxide] | 0.223 nM | 6300 nM |
| CO[C@@]1(CN2CCn3nncc3C2)/C=C/C[C@H](C)[C@@H](C)S(=O)(=O)NC(=O)c2ccc3c(c2)N(C[C@@H]2CC[C@H]21)C[C@@]1(CCCc2cc(Cl)ccc21)CO3 [Example 207, (1S,3′R,6′R,7′S,8′E,11′S,12′R)-6-chloro-7′-(6,7-dihydro[1,2,3]triazolo[1,5-a]pyrazin-5(4H)-ylmethyl)-7′-methoxy-11′,12′-dimethyl-3,4-dihydro-2H,15′H-spiro[naphthalene-1,22′-[20]oxa[13]thia[1,14]diazatetracyclo [14.7.2.0~3,6~.0~19,24~]pentacosa[8,16,18,24]tetraen]-15′-one 13′,13′-dioxide] | 0.137 nM | 395 nM |
| CO[C@@]1(CN2CCC23COC3)/C=C/C[C@H](C)[C@@H](C)S(=O)(=O)NC(=O)c2ccc3c(c2)N(C[C@@H]2CC[C@H]21)C[C@@]1(CCCc2cc(Cl)ccc21)CO3 [Example 208, (1S,3′R,6′R,7′S,8′E,11′S,12′R)-6-chloro-7′-methoxy-11′,12′-dimethyl-7′-(6-oxa-1-azaspiro[3.3]hept-1-ylmethyl)-3,4-dihydro-2H,15′H-spiro[naphthalene-1,22′-[20]oxa[13]thia[1,14]diazatetracyclo [14.7.2.0~3,6~.0~19,24~]pentacosa[8,16,18,24]tetraen]-15′-one 13′,13′-dioxide] | 0.099 nM | 368 nM |
